From US20090143279A1 (priority 2007, published 2009) come the findings set out here.

One experiment concerns cytochrome c. In kind it is cell-based, mouse.
The next experiment concerns reactive oxygen species. In kind it is cell-based, mouse.
Another experiment concerns OXPHOS gene expression. It is filed as cell-based, mouse.
In the next experiment the test system is mtOXPHOS transcripts. It is filed as cell-based, mouse.
A further experiment has as its system nuOXPHOS transcripts. It is filed as cell-based, mouse.
In experiment [1] the test system is cellular dehydrogenase activity.
The subject of experiment [2] is mitochondrial membrane potential. In kind it is cell-based, mouse.
Setting [3] is: composite Z-score vs DMSO, Conc 20 μM.
The mark [4] stands for this setting: composite Z-score vs mock-treated (DMSO) wells, Conc 20 μM.
The mark [5] stands for this setting: normalized composite Z-score vs mock-treated (DMSO) wells, Conc 20 μM.
Setting [6] is: composite Z-score vs DMSO wells, Conc 20 μM.

Like-named read-outs stand apart in the source and are kept apart here.

As to `N[C@@H](C(=O)N[C@@H]1C(=O)N2C(C(=O)O)=C(Cl)CS[C@H]12)c1ccccc1` [cefaclor], the values for the cyt c with cytochrome c and with cytochrome c (setting [3]) were −0.764 and 0.231, respectively. Also, the ROS in the experiment on reactive oxygen species is 0.387; with reactive oxygen species (setting [3]) it was 0.297. Besides, the GE-HTS was 0.331 in the experiment on OXPHOS gene expression and −0.547 with OXPHOS gene expression (setting [3]). The mitoOX is reported as −0.161 with mtOXPHOS transcripts and −0.435 with mtOXPHOS transcripts (setting [3]). In addition, the nucOX in the experiment with nuOXPHOS transcripts was 0.535; in the experiment on nuOXPHOS transcripts (setting [3]), −0.506. Moreover, the MTT in experiment [1] was −1.329; in experiment [1] (setting [3]) it was −0.752. Besides, the Viability with C2C12 myotubes is recorded as 0.762; with C2C12 myotubes (setting [3]) it was −0.091. Moreover, the ΔΨm was −0.759 in experiment [2] and −0.772 in experiment [2] (setting [3]).
Regarding `COc1cc(-c2coc3cc(O[C@@H]4O[C@H](CO)[C@@H](O)[C@H](O)[C@H]4O)c(OC)c(O)c3c2=O)cc(O)c1OC` [iridin], the cyt c in the experiment with cytochrome c (setting [4]) is −0.474. The compound further showed an ROS with reactive oxygen species (setting [4]) of 0.927. The GE-HTS with OXPHOS gene expression (setting [4]) is given as −0.755. In the experiment on mtOXPHOS transcripts (setting [4]), the mitoOX is reported as −0.990. In addition, in the experiment with nuOXPHOS transcripts (setting [4]), the nucOX is on record as −0.602. In addition, in experiment [1] (setting [4]), the MTT was −1.958. Further, the Viability in the experiment on C2C12 myotubes (setting [4]) is −0.441. This compound also registered a ΔΨm in experiment [2] (setting [4]) of 0.076.
Regarding `COc1cc2occc2c2oc(=O)ccc12` [isobergaptene], in the experiment on cytochrome c (setting [4]), the cyt c worked out at 0.486. Further, the ROS with reactive oxygen species (setting [4]) is 1.329. In the experiment with OXPHOS gene expression (setting [4]), this compound came in with a GE-HTS of 0.514. In the experiment with mtOXPHOS transcripts (setting [4]), this compound showed a mitoOX of 0.715. Further, the nucOX in the experiment with nuOXPHOS transcripts (setting [4]) is 0.338. In experiment [1] (setting [4]), the MTT is recorded as −1.025. This compound displayed a Viability in the experiment with C2C12 myotubes (setting [4]) of 0.375. The ΔΨm in experiment [2] (setting [4]) is recorded as −0.112.
For `COc1ccc2c(c1)C1(C)CCC(=O)CC1CC2` (stereo not shown), the cyt c in the experiment with cytochrome c (setting [5]) turned out to be 0.380. This compound also showed an ROS in the experiment on reactive oxygen species (setting [5]) of 1.860. In addition, in the experiment on OXPHOS gene expression (setting [5]), the GE-HTS is recorded as −0.632. Further, the mitoOX in the experiment with mtOXPHOS transcripts (setting [5]) is on record as −0.652. Further, in the experiment on nuOXPHOS transcripts (setting [5]), the nucOX is reported as −0.582. Further, the MTT in experiment [1] (setting [5]) is given as −2.008. Further, the Viability in the experiment with C2C12 myotubes (setting [5]) is listed as −0.071. For the same compound, in experiment [2] (setting [5]), the ΔΨm was −0.173.
`CC1CC(O)C2OC1CC1C(CC1(C)C)C2C` (stereo not shown) [3,7-epoxycaryophyllan-6-ol]: the cyt c in the experiment on cytochrome c (setting [5]) worked out at 0.604. In the experiment with reactive oxygen species (setting [5]), this compound registered an ROS of 0.255. For the same compound, the GE-HTS in the experiment on OXPHOS gene expression (setting [5]) is on record as −1.018. Besides, the mitoOX in the experiment with mtOXPHOS transcripts (setting [5]) is reported as −0.407. Besides, in the experiment on nuOXPHOS transcripts (setting [5]), the nucOX is −1.203. For the same compound, the MTT in experiment [1] (setting [5]) is −1.302. Further, in the experiment on C2C12 myotubes (setting [5]), the Viability is given as −0.644. Further, the ΔΨm in experiment [2] (setting [5]) is −0.461.
Regarding `C[C@]12C=CC(=O)C=C1CC[C@@H]1[C@@H]2CC[C@]2(C)C(=O)CC[C@@H]12` [androsta-1,4-dien-3,17-dione], the cyt c with cytochrome c (setting [3]) is reported as 0.261. The same compound came in with an ROS in the experiment on reactive oxygen species (setting [3]) of 0.068. Also, the GE-HTS in the experiment with OXPHOS gene expression (setting [3]) is recorded as −0.180. For the same compound, in the experiment with mtOXPHOS transcripts (setting [3]), the mitoOX is recorded as −0.189. In addition, in the experiment on nuOXPHOS transcripts (setting [3]), the nucOX is −0.143. In experiment [1] (setting [3]), the MTT is recorded as −0.500. Also, the Viability in the experiment with C2C12 myotubes (setting [3]) came to 0.162. Besides, the ΔΨm in experiment [2] (setting [3]) is recorded as 0.152.
In the experiment on cytochrome c (setting [3]), `CCNC(=O)CC[C@H](N)C(=O)O` [theanine] had a cyt c of 0.244. The ROS in the experiment with reactive oxygen species (setting [3]) came to 0.615. For the same compound, the GE-HTS with OXPHOS gene expression (setting [3]) is listed as −1.153. For the same compound, in the experiment on mtOXPHOS transcripts (setting [3]), the mitoOX is on record as −0.778. Also, in the experiment on nuOXPHOS transcripts (setting [3]), the nucOX is −1.209. Also, the MTT in experiment [1] (setting [3]) is listed as −0.851. In addition, in the experiment with C2C12 myotubes (setting [3]), the Viability is recorded as −0.613. Besides, the ΔΨm in experiment [2] (setting [3]) is −0.557.
Turning to `OCc1ccccc1O` [salicyl alcohol], the cyt c with cytochrome c (setting [6]) stood at 0.424. Also, the ROS in the experiment on reactive oxygen species (setting [6]) is reported as 0.479. Further, the GE-HTS in the experiment on OXPHOS gene expression (setting [6]) is listed as −0.486. Further, in the experiment with mtOXPHOS transcripts (setting [6]), the mitoOX is reported as −0.498. The nucOX with nuOXPHOS transcripts (setting [6]) is reported as −0.433. Further, the MTT in experiment [1] (setting [6]) was −0.178. The Viability in the experiment on C2C12 myotubes (setting [6]) amounted to 0.377. Moreover, the ΔΨm in experiment [2] (setting [6]) was −0.590.
Consider `CN1C(C)(C)CCCC1(C)C` [pempidine], for which the cyt c in the experiment on cytochrome c was found to be 0.163; in the experiment on cytochrome c (setting [3]) it was 0.146. For the same compound, the ROS in the experiment on reactive oxygen species is recorded as 1.119; in the experiment on reactive oxygen species (setting [3]), 0.861. The GE-HTS in the experiment with OXPHOS gene expression was −0.656; in the experiment on OXPHOS gene expression (setting [3]), −0.874. The figures for the mitoOX with mtOXPHOS transcripts and with mtOXPHOS transcripts (setting [3]) were −0.998 and −0.378, respectively. Also, the results for the nucOX in the experiment with nuOXPHOS transcripts and in the experiment on nuOXPHOS transcripts (setting [3]) were −0.425 and −1.035, respectively. In addition, the MTT in experiment [1] is recorded as −2.128; in experiment [1] (setting [3]), −1.419. Also, the values for the Viability in the experiment on C2C12 myotubes and in the experiment on C2C12 myotubes (setting [3]) were −1.023 and −0.822, respectively. For the same compound, the values for the ΔΨm in experiment [2] and in experiment [2] (setting [3]) were −0.967 and −0.376, respectively.
